For the experiment, the system named is cucumber gray mold disease fungi (Botrytis cinerea). The experiment can be described thus: Cucumber gray mold control test. The format is in vivo. Particulars: for pest or weed control at 0.025 ppm: Compound A 0.025 ppm alone (Compound B 0 ppm); for pest or weed control at 0.0063 ppm: Compound A 0.0063 ppm alone (Compound B 0 ppm). How it is done:
The compound A and the compound B were dissolved in an organic solvent and a surfactant to obtain an emulsion. The emulsion was diluted to a prescribed concentration with water. The dilute emulsion was sprayed to cotyledons of cucumber (variety: Shimoshirazu). They were naturally dried at room temperature. Thereafter, a conidiospore suspension of cucumber gray mold disease fungi (Botrytis cinerea) was dropwise inoculated. It was placed in a dark room at 20° C. and high humidity for 4 days. Appearance of disease spots on the leaves and that on untreated leaves were compared and studied, and a control ratio was calculated. The test was carried out in duplicate.
Based on the Colby's equation, a theoretical control ratio in the dilute emulsion prepared by using the compound A and the compound B together was calculated from a measured control ratio in the dilute emulsion prepared by using the compound A alone and that in the dilute emulsion prepared by using the compound B alone. Colby's equation: E=M+N−MN/100
M: measured control ratio (%) in dilute emulsion prepared by using compound A alone
N: measured control ratio (%) in dilute emulsion prepared by using compound B alone
E: theoretical control ratio (%) in dilute emulsion prepared by using compound A and compound B together
A control ratio of 0% means that disease spots of the same level as those of the non-treatment plot were observed, and a control ratio of 100% means that no disease spot was observed.
The test was carried out in the same manner as in Example 1.

Where [1] appears, read: Botrytis cinerea, 96 h, Table 4, Compound B 1.6 ppm alone (Compound A 0 ppm), read-out: Cucumber gray mold control ratio.
[2] abbreviates: Botrytis cinerea, 96 h, Table 4, Compound B 100 ppm alone (Compound A 0 ppm), read-out: Cucumber gray mold control ratio.
[3] abbreviates: Botrytis cinerea, 96 h, Table 4, Compound B 0.4 ppm alone (Compound A 0 ppm), read-out: Cucumber gray mold control ratio.
The mark [4] stands for this setting: Botrytis cinerea, 96 h, read-out: Cucumber gray mold control ratio, Table 4.
Setting [5] is: Botrytis cinerea, 96 h, read-out: Cucumber gray mold control ratio, Table 5.

Like-named read-outs stand apart in the source and are kept apart here.

On to `COC(=O)N(OC)c1ccccc1COc1ccn(-c2ccc(Cl)cc2)n1` [Pyraclostrobin, pyraclostrobin], for which the pest or weed control at 1.6 µg/mL under setting [1] came to 23%. In addition, the pest or weed control at 6.3 µg/mL (Botrytis cinerea, 96 h, Table 4, Compound B 6.3 ppm alone (Compound A 0 ppm), read-out: Cucumber gray mold control ratio) was 46%.
As to propineb, the “Cucumber gray mold control ratio” value is recorded as 27% (Table 5, Compound B 100 ppm alone (Compound A 0 ppm)) and 33% (Table 5, Compound B 400 ppm alone (Compound A 0 ppm)).
`[H]/N=C(/N)N[C@H]1[C@H](O)[C@@H](O)[C@H](O[C@@H]2O[C@@H](C)[C@](O)(C=O)[C@H]2O[C@@H]2O[C@@H](CO)[C@H](O)[C@@H](O)[C@@H]2NC)[C@@H](N/C(N)=N\[H])[C@@H]1O` [Streptomycin, streptomycin]: the pest or weed control at 100 µg/mL under setting [2] was 12%. In addition, the pest or weed control at 400 µg/mL (Botrytis cinerea, 96 h, Table 4, Compound B 400 ppm alone (Compound A 0 ppm), read-out: Cucumber gray mold control ratio) came out at 13%.
With `CC#Cc1cc(C)nc(Nc2ccccc2)n1` [Mepanipyrim, mepanipyrim], the pest or weed control at 0.4 µg/mL under setting [3] stood at 19%. For the same compound, the pest or weed control at 1.6 µg/mL under setting [1] turned out to be 29%.
On to `Cc1nc2c(F)c(F)ccc2cc1Oc1cccc(F)c1C(C)(C)O` [Compound A, 2-{2-[(7,8-difluoro-2-methylquinolin-3-yl)oxy]-6-fluorophenyl}propan-2-ol], for which the pest or weed control at 0.025 ppm is, setting by setting: (Botrytis cinerea, 96 h, read-out: Cucumber gray mold control ratio, Table 1) 24%; (Botrytis cinerea, 96 h, read-out: Cucumber gray mold control ratio, Table 2) 17%; (Botrytis cinerea, 96 h, read-out: Cucumber gray mold control ratio, Table 3) 5%; under setting [4], 7%; under setting [5], 17%. Besides, the pest or weed control at 0.1 ppm stood at 89% (Botrytis cinerea, 96 h, read-out: Cucumber gray mold control ratio, Table 1, Compound A 0.1 ppm alone (Compound B 0 ppm)); 48% (Botrytis cinerea, 96 h, read-out: Cucumber gray mold control ratio, Table 2, Compound A 0.1 ppm alone (Compound B 0 ppm)); 53% (Botrytis cinerea, 96 h, read-out: Cucumber gray mold control ratio, Table 3, Compound A 0.1 ppm alone (Compound B 0 ppm)); 26% (Botrytis cinerea, 96 h, read-out: Cucumber gray mold control ratio, Table 4, Compound A 0.1 ppm alone (Compound B 0 ppm)); 64% (Botrytis cinerea, 96 h, read-out: Cucumber gray mold control ratio, Table 5, Compound A 0.1 ppm alone (Compound B 0 ppm)). Moreover, the pest or weed control at 0.0063 ppm is 10% under setting [4] and 3% under setting [5].
Consider `Cc1ccc2nc3sc(=O)sc3nc2c1` [Chinomethionat, chinomethionat], for which the pest or weed control at 100 µg/mL (Botrytis cinerea, 96 h, read-out: Cucumber gray mold control ratio, Table 5, Compound B 100 ppm alone (Compound A 0 ppm)) is 20%. The pest or weed control at 400 µg/mL (Botrytis cinerea, 96 h, read-out: Cucumber gray mold control ratio, Table 5, Compound B 400 ppm alone (Compound A 0 ppm)) was 14%.
Regarding `CCCC1COC(Cn2cncn2)(c2ccc(Cl)cc2Cl)O1` (stereo not drawn) [Propiconazole, propiconazole], the pest or weed control at 1.6 µg/mL (Botrytis cinerea, 96 h, Table 5, Compound B 1.6 ppm alone (Compound A 0 ppm), read-out: Cucumber gray mold control ratio) turned out to be 26%. The pest or weed control at 6.3 µg/mL (Botrytis cinerea, 96 h, Table 5, Compound B 6.3 ppm alone (Compound A 0 ppm), read-out: Cucumber gray mold control ratio) was found to be 42%.
`C=CCNC(=O)c1c([Si](C)(C)C)sc(C)c1C` [Compound B, silthiofam]: the pest or weed control at 400 ppm (Botrytis cinerea, 96 h, read-out: Cucumber gray mold control ratio, Table 1, Compound B 400 ppm alone (Compound A 0 ppm)) amounted to 0%. Further, the pest or weed control at 6.3 ppm (Botrytis cinerea, 96 h, read-out: Cucumber gray mold control ratio, Table 2, Compound B 6.3 ppm alone (Compound A 0 ppm)) worked out at 0%. For the same compound, the pest or weed control at 25 ppm (Botrytis cinerea, 96 h, read-out: Cucumber gray mold control ratio, Table 2, Compound B 25 ppm alone (Compound A 0 ppm)) was 0%. Moreover, the pest or weed control at 100 ppm (Botrytis cinerea, 96 h, read-out: Cucumber gray mold control ratio, Table 2, Compound B 100 ppm alone (Compound A 0 ppm)) came to 5%. Also, the pest or weed control at 0.1 ppm (Botrytis cinerea, 96 h, read-out: Cucumber gray mold control ratio, Table 3, Compound B 0.1 ppm alone (Compound A 0 ppm)) turned out to be 0%. For the same compound, the pest or weed control at 0.4 ppm (Botrytis cinerea, 96 h, read-out: Cucumber gray mold control ratio, Table 3, Compound B 0.4 ppm alone (Compound A 0 ppm)) turned out to be 0%. For the same compound, for the setting “Botrytis cinerea, 96 h, read-out: Cucumber gray mold control ratio, Table 3, Compound B 1.6 ppm alone (Compound A 0 ppm)”, the pest or weed control at 1.6 ppm is 0%.
As to `Cc1cc(C)nc(Nc2ccccc2)n1` [Pyrimethanil, pyrimethanil], the pest or weed control at 0.4 µg/mL under setting [3] turned out to be 6%. Under setting [1], the pest or weed control at 1.6 µg/mL worked out at 16%.
For `CC1(C)CCC(Cc2ccc(Cl)cc2)C1(O)Cn1cncn1` (stereo not drawn) [Metconazole, metconazole], in that order: 22% and 29%.
Regarding `CN(C)[C@@H]1C(O)=C(C(N)=O)C(=O)[C@@]2(O)C(O)=C3C(=O)c4c(O)cccc4[C@@](C)(O)[C@H]3[C@H](O)[C@@H]12` [Oxytetracycline, oxytetracycline], the pest or weed control at 100 µg/mL (Botrytis cinerea, 96 h, Table 5, Compound B 100 ppm alone (Compound A 0 ppm), read-out: Cucumber gray mold control ratio) turned out to be 18%. For the same compound, the pest or weed control at 400 µg/mL (Botrytis cinerea, 96 h, Table 5, Compound B 400 ppm alone (Compound A 0 ppm), read-out: Cucumber gray mold control ratio) is 21%.
In the case of `N#Cc1sc2c(=O)c3ccccc3c(=O)c=2sc1C#N` [Dithianon, dithianon], the pest or weed control at 25 µg/mL (Botrytis cinerea, 96 h, Table 4, Compound B 25 ppm alone (Compound A 0 ppm), read-out: Cucumber gray mold control ratio) amounted to 13%. Further, the pest or weed control at 100 µg/mL under setting [2] amounted to 10%.

The record behind these values is patent US11553716B2, “Agricultural and horticultural fungicide composition” (Nippon Soda Co., Ltd., priority 2018, dated 2023).
